Experimental findings from PMC8100298, “Histone deacetylase inhibitor resminostat in combination with sorafenib counteracts platelet-mediated pro-tumoral effects in hepatocellular carcinoma” (Scientific Reports, 2021) are described below.

Usually EC50 stands for the midpoint of the concentration-response curve.

In one assay the test system is PLC/PRF/5. Put plainly: Proliferation assay. It counts as cell-based. Particulars: for EC50: Homo sapiens. An excerpt:
(§1) The cell lines HepG2 (ACC180, RRID:CVCL_0027; DMSZ, Braunschweig Germany), SNU-475 (CRL-2236, Lot. 58483227, RRID:CVCL_0497; ATCC, Manassas, Virginia, US), SNU-387 (CRL-2237, Lot. 58483192, RRID:CVCL_0250; ATCC, Virginia, US), PLC/PRF/5 (300315, Lot. 812, RRID:CVCL_0485; CLS Cell Lines Service GmbH, Eppelheim, Germany) and HuH-7 (JCRB0403, Lot. 2272008, RRID:CVCL_0336; JCRB Cell Bank, Japan) were propagated according to the distributor’s guidelines. The authenticity of the cell lines was confirmed by short tandem repeat (STR) analysis (DSMZ, Braunschweig, Germany). Mycoplasma contamination was ruled out by PCR testing. For assays with platelet lysate (PL), FBS was substituted with 10% PLTMax Human Platelet Lysate (Cat. Nr. SCM141, Lot Number VP1602259; Millipore, Burlington, Massachusetts, US). The PL was supplemented with 20 U/ml Heparin (Heparin sodium salt from porcine intestinal mucosa, H4784-250MG; Sigma-Aldrich, Taufkirchen, Germany) to prevent coagulation.
(§2) Prior to the assay, the optimal seeding density was determined for each cell line to obtain an exponential growth during the experiment (2000 to 6000 cells per 96-well). Drug dilution series with 8 concentrations were prepared for EC50 determinations of single drugs. Three wells for each concentration were seeded (technical replicates). For drug combinations, dilution series of six concentrations for each drug alone or in combination at equal ratio were prepared. After 4 h of cell seeding, the drugs were added to the cells. Each 96-well plate contained a vehicle control (0.1% or 0.2% DMSO), a death control Ro 106-9920 (Tocris Cookson Ltd., Bristol, UK) a growth control (untreated cells compared to vehicle treated cells), and blank wells without cells. The proliferation assay was stopped after 4 days by crystal violet staining of the cells (0.5% in 20% methanol). Following extraction of the crystal violet with 8% acetic acid, the eluates were quantified photometrically at 570 nm and the reference wavelength 690 nm in an absorbance microplate reader (Tecan Sunrise; Tecan, Männedorf, Switzerland). Only readouts from 96-well plates with a Z-factor between 0.5 and 1.0 were used. Blank OD values were subtracted from the mean OD values. Nonlinear curve fitting and EC50 calculation was performed with Excel Solver.

The subject of a further assay is SNU-475. Put plainly: Proliferation assay. Particulars: for EC50: Homo sapiens, read-out: EC50, anti-proliferative activity of kinase inhibitors. It is filed as cell-based.
Description: as §1, §2

For assay [1], the system named is Hep3B2.1-7 human hepatic carcinoma. An excerpt: The orthotopic xenograft mouse model of Hep3B2.1–7 human hepatic carcinoma was previously established. Tumors were created by injection of 2.5 × 10^6 Hep3B2.1-7 cells (ATCC, RRID:CVCL_0326; Virginia, Manassas, USA) into the main lobe of the liver of anaesthetized female SCID mice (C.B-17-Igh-1bPrkdc(scid)). […] Treatments were continued for 21 days. Treatment of animals was ceased when the body weight dropped below 85% of that on entry of the study. Only mice culled at the termination date were used to determine the tumor weight. The experiment was conducted by vivoPharm pty Ltd (Bundoora, Australia) in accordance with the principles outlined in the “Australian Code of Practice for the Care and Use of Animals for Scientific Purposes”, 7th Edition, 2004 (National Health and Medical Research Council, Canberra, Australia). All procedures involving animals were reviewed and approved by the University of Adelaide Animal Ethics Committee. The study was carried out in compliance with the ARRIVE guidelines (http://www.nc3rs.org.uk/page.asp?id=1357). […]
invasion assay. The ODs of the invaded cells were normalized relative to ODs from tissue […]
Orthotopic xenograft mouse model
The orthotopic xenograft mouse model of Hep3B2.1-7 human hepatic carcinom a was previously established. The experiment was conducted by vivoPharm pty Ltd (Australia) in accordance with the principles outlined in the Australian Code of Practice for the Care and Use of Animals for Scientific Purposes, 7th Edition, 2004 (National Health and Medical Research Council). Procedures involving the care and use of animals in thi s study were reviewed and approved by the University of Adelaide Animal Ethics Committee. The study was carried out in compliance with the ARRIVE guidelines
(http://www.nc3rs.org.uk/page.asp?id=1357).
The animals were delivered to the test facility 1 1 days prior inoculation. On arrival, all animals received a detailed physical examination, including body weight measurement by the […]
technical staff. […] Each a nimal was identified by a transponder (Bar Code Data Systems Pty Ltd, Botany Bay, NSW, Australia) that could be scanned with a barcode reader (DataMars LabMax I). The transponder was implanted by subcutaneous injection between the shoulder blades while the mouse was under isoflurane-induced anaesthesia. The animals were housed in groups of six in micro-isolator cages (two cages per group). Each cage was clearly labelled with a cage card indicating study number, group, gender, and prescribed dose concentration and dose volume. The animals were kept in a controlled environment (targeted ranges: temperature 21 ± 3°C, humidity 30 -70%, 15 air changes per hour), with a light/dark cycle each of 12 hours, and under barrier (quarantine) conditions. Temperature and relative humidity were monitored continuously. All animals were subjected to the same environmental conditions. A standard certified commercial rodent diet (Rat and Mouse Cubes, Specialty Feeds Pty Ltd, Glen Forrest, WA, Australia) and tap water were provided to the animals ad libitum. Food supply was sterilized by autoclaving, and water […]
supply was sterilized by acidification with hydrochloric acid (pH 2.4-2.7) by Laboratory Animal Services, University of Adelaide (Adelaide, SA, Australia). Additional feed (a nimal seed, Magill Grain Store, Magill, SA, Australia), as well as wet standard feed was provided to all animals from Day 7 onwards, as a measure to minimize body w eight loss. The extent of adverse reaction was assessed during the study and mice were culled if severe adverse […]
The age range of the mice were 12-16 weeks at
Hep3B2.1-7 human hepatic carcinoma cells were sourced from the American Type Culture […]
Collection (ATCC; Virginia, USA).

For assay [2], the system named is PLC/PRF/5 and SNU-475 cells. Put plainly: ELISA for growth factors PDGF-AA, TGF and VEGF. It is filed as cell-based. Particulars: tissue culture supernatants, with or without platelets (Fig. S4B). The method, then: A. The growth factors PDGF-AA, TGFβ and VEGF were determined from tissue culture supernatants by ELISA. PLC/PRF/5 and SNU-475 cells were cultured with increasing […]
(1 picture or pasted object on this page, not shown here) […]
amounts of platelets. In parallel, platelets were cultured without cells to determine if the growth factors were platelet derived.
B. ELSIAs for PDGF-AA, TGFβ and VEGF were performed after drug treatment of PC/PRF/5 and SNU-475 cells. Cells were cultured as indicated with or without platelets and treated with resminostat, sorafenib, the drug combination or vehicle control 0.1% DMSO.
Table S1_ EC50 cell line screen
S1D. The cancer cell lines, their tissue origins and the respective EC50 values are shown.
Each cell line was seeded in duplicates.
Background: In an ELISA, binding on a coated surface is turned into a signal by an enzyme label.

A further assay concerns HepG2. Put plainly: Proliferation assay. It counts as cell-based. Particulars: for EC50: Homo sapiens, 96 h, 4 days.
Description: as §1, §2

Another assay concerns HuH-7. Put plainly: Proliferation assay. It is filed as cell-based. Particulars: for EC50: Homo sapiens, 96 h, 4 days.
Description: as §1, §2

The subject of another assay is SNU-387. Put plainly: Proliferation assay. It is filed as cell-based. Particulars: SNU-387 vs HepG2, PLC/PRF/5, HuH-7 (Fig. 1F).
Description: as §1, §2

The mark [3] stands for this setting: PLC/PRF/5 (Fig. 6B), read-out: EC50, anti-proliferative activity of kinase inhibitors.

Read-outs that look alike come from different tables or passages of the source. A value given as a limit tells only on which side of the number the result lay.

With `C[C@@H](Oc1cc(-c2cnn(C3CCNCC3)c2)cnc1N)c1c(Cl)ccc(F)c1Cl` [crizotinib, Crizotinib], the 50% effective concentration (EC50) in the assay on PLC/PRF/5 (setting [3]) and in the assay on SNU-475 (SNU-475 (Fig. 6B)) was around 5 µM each time.
For `COc1cc2nccc(Oc3ccc(NC(=O)NC4CC4)c(Cl)c3)c2cc1C(N)=O` [lenvatinib, Lenvatinib], in the assay with PLC/PRF/5 (setting [3]), the EC50 was around 17 µM. Further, in the assay with SNU-475 (SNU-475 (Fig. 6B)), the EC50 was above 25 µM and the “EC50, anti-proliferative activity of kinase inhibitors” value is given as “could not be determined due to a lack of efficacy”.
On to `CNC(=O)c1cc(Oc2ccc(NC(=O)Nc3ccc(Cl)c(C(F)(F)F)c3)cc2)ccn1` [sorafenib, Sorafenib], for which the “Tumour weight, Mean” value in assay [1] (40 mg/kg oral once daily, 21 days, SCID mice) is reported as 1.11 g. Further, the “tumor weight compared to the vehicle control” value in assay [1] (daily resminostat 15 and 40 mg/kg, sorafenib 40 mg/kg, or combination (Fig. 1B)) was “significantly reduced tumor weight”. Moreover, in assay [2], the “growth factors released by platelets or secreted by HCC cells” value was “not consistantly affected”. Besides, the “Ratio PL/FBS” value with HepG2 (HepG2, ratio of PL/FBS EC50s) stood at 6.4; in the assay on HuH-7 (HuH-7, ratio of PL/FBS EC50s), 3.2; in the assay with PLC/PRF/5 (PLC/PRF/5, ratio of PL/FBS EC50s) it was 4.6. Besides, the EC50 is 1.8 ± 0.4 µM with HepG2 (HepG2, fetal bovine serum, read-out: EC50 in FBS); 11.5 ± 1.3 µM in the assay with HepG2 (HepG2, platelet lysate, absolute EC50, read-out: EC50 in PL, absolute EC50 (*)); 4.4 ± 0.9 µM with HuH-7 (HuH-7, fetal bovine serum, read-out: EC50 in FBS); 14 ± 2.5 µM in the assay with HuH-7 (HuH-7, platelet lysate, absolute EC50, read-out: EC50 in PL, absolute EC50 (*)); 4.8 ± 0.6 µM in the assay on PLC/PRF/5 (96 h, PLC/PRF/5, fetal bovine serum, 4 days, read-out: EC50 in FBS); 22.1 ± 2.5 µM with PLC/PRF/5 (96 h, PLC/PRF/5, platelet lysate, 4 days, absolute EC50, read-out: EC50 in PL, absolute EC50 (*)). Moreover, the “EC50 compared to the epithelial cell lines” value is recorded as “about three-fold higher” in the assay on SNU-387 and “about three-fold higher” in the assay with SNU-475 (SNU-475 vs HepG2, PLC/PRF/5, HuH-7 (Fig. 1F)). The “effect of platelet factors on potency and efficacy” value in the assay with PLC/PRF/5 (PLC/PRF/5, platelet lysate vs FBS dose-response curves (Fig. 2A)) is recorded as “reduced”. In the assay with PLC/PRF/5 (PLC/PRF/5, platelet lysate, at 25 µM), the maximal inhibition result was “not reached”.
